According to patent US10059667B2, “Antidiabetic compounds” (MERCK SHARP & DOHME CORP., priority 2014, dated 2018):

What was measured:
[1] = target: T1, Human GPR40 (Homo sapiens (Human), UniProt O14842); assay: Inositol Phosphate Turnover (IP1) Assay 1, HEK cells stably expressing human GPR40, 3H-inositol SPA; type: cell-based; conditions: HEK cells stably expressing human GPR40, 96-well
Description: (§1) Human and mouse GPR40 stable cell-lines were generated in CHO cells stably expressing NFAT BLA (Beta-lactamase). A human GPR40 stable cell-line was generated in HEK cells stably expressing the aequorin expressing reporter. The expression plasmids were transfected using lipofectamine (Life Technologies) following manufacturer's instructions. Stable cell-lines were generated following drug selection.
The assay was performed in 96-well format. HEK cells stably expressing human GPR40 were plated to be 60-80% confluent within 72 h. After 72 h, the plates were aspirated and the cells washed with inositol-free DMEM (ICN). The wash media was replaced with 150 μL of 3H-inositol labeling media (inositol-free media containing 0.4% human albumin or 0.4% mouse albumin, 1× pen/strep antibiotics, glutamine, 25 mM HEPES to which was added 3H-myo-inositol NEN #NET114A 1 mCi/mL, 25 Ci/mmol diluted 1:150 in loading media with a final specific radioactivity of 1 μCi/150 μL). Alternatively, the human and mouse albumin can be added after the overnight labeling step before the addition of LiCl.
The assay was typically run the next day after 18 h labeling. On the day of the assay, 5 μL of 300 mM LiCl was added to all wells and incubated at 37 degrees for 20 min. 0.75 μL of each compound was added and incubated with the cells for 60 min at 37 degrees. The media was then aspirated off and the assay terminated with the addition of 60 μL 10 mM formic acid. The cells were lysed for 60 min at room temperature. 15-30 μL of lysate was mixed with 70 μL/1 mg YSi SPA beads (Amersham) in clear bottom Isoplates. The plates were shaken for 2 h at room temperature. Beads were allowed to settle and the plates were counted in the Wallac Microbeta.

[2] = target: T1, Human GPR40; assay: FLIPR assay, agonist-induced calcium mobilization in GPR40/CHO NFAT BLA cells; type: cell-based
Description: as §1
FLIPR (Fluorimetric Imaging Plate Reader, Molecular Devices) assays were performed to measure agonist-induced calcium mobilization of the stable clones. For the FLIPR assay, one day before assay, GPR40/CHO NFAT BLA cells were seeded into black-wall-clear-bottom 384-well plates (Costar) at 1.4×10e4 cells/20 μL medium/well. The cells were incubated with 20 μl/well of the assay buffer (HBSS, 0.1% BSA, 20 mM HEPES, 2.5 mM probenecid, pH 7.4) containing 8 μM fluo-4, AM, 0.08% pluronic acid at room temperature for 100 minutes. Fluorescence output was measured using FLIPR. Compounds were dissolved in DMSO and diluted to desired concentrations with assay buffer. 13.3 μL/well of compound solution was added.

T1 sequence (O14842 whole entry): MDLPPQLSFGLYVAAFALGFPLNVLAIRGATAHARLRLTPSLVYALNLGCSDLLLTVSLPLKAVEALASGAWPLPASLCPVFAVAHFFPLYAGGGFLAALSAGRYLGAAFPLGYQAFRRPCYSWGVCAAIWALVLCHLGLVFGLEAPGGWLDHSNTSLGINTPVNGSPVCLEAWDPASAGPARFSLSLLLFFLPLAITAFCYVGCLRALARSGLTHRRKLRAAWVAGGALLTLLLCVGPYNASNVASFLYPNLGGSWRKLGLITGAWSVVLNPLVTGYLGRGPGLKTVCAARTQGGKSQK

Structure (SMILES)	EC50 [1]	EC50 [2]
O=C(O)C[C@H](c1cccc(OCC2CCCCN2Cc2cc(C(F)(F)F)ccc2C(F)(F)F)c1)C1CC1 (stereo partly drawn) [Example 3, (3S)-3-(3-((1-(2,5-Bis(trifluoromethyl)benzyl)piperidin-2-yl)methoxy)phenyl)-3-cyclopropylpropanoic acid]	8380 nM	126 nM
C[C@H](C(=O)O)[C@H](c1cccc(OCC2CN(c3cc(C(F)(F)F)ccc3C(F)(F)F)C2)c1)C1CC1 [Example 4, (2S,3R)-3-(3-((1-(2,5-Bis(trifluoromethyl)phenyl)azetidin-3-yl)methoxy)phenyl)-3-cyclopropyl-2-methylpropanoic acid]	485 nM	77 nM
CC1(COc2cccc([C@@H](CC(=O)O)C3CC3)c2)CN(Cc2cc(C(F)(F)F)ccc2C(F)(F)F)C1 [Example 6, (S)-3-(3-((1-(2,5-Bis(trifluoromethyl)benzyl)-3-methylazetidin-3-yl)methoxy)phenyl)-3-cyclopropylpropanoic acid]	2720 nM	95 nM
C[C@H](C(=O)O)[C@H](c1cccc(O[C@@H]2CCCN(Cc3cc(C(F)(F)F)ccc3C(F)(F)F)C2)c1)C1CC1 [Example 7, (2S,3R)-3-(3-(((R)-1-(2,5-bis(trifluoromethyl)benzyl)piperidin-3-yl)oxy)phenyl)-3-cyclopropyl-2-methylpropanoic acid]	89 nM	2 nM
O=C(O)C[C@H](c1cccc(OC2CC3CN(Cc4cc(C(F)(F)F)ccc4C(F)(F)F)CC3C2)c1)C1CC1 (stereo partly drawn) [Example 8, (3S)-3-(3-((2-(2,5-bis(trifluoromethyl)benzyl)octahydrocyclopenta[c]pyrrol-5-yl)oxy)phenyl)-3-cyclopropylpropanoic acid]	866 nM	15 nM
CC(Oc1cccc([C@H](C2CC2)[C@H](C)C(=O)O)c1)C1CN(Cc2cc(C(F)(F)F)ccc2C(F)(F)F)C1 (stereo partly drawn) [Example 9, (2S,3R)-3-(3-(1-(1-(2,5-Bis(trifluoromethyl)benzyl)azetidin-3-yl)ethoxy)phenyl)-3-cyclopropyl-2-methylpropanoic acid]	217 nM	4 nM
O=C(O)C[C@H](c1cccc(OCC2(F)CN(Cc3cc(C(F)(F)F)ccc3C(F)(F)F)C2)c1)C1CC1 [Example 11, (S)-3-(3-((1-(2,5-Bis(trifluoromethyl)benzyl)-3-fluoroazetidin-3-yl)methoxy)phenyl)-3-cyclopropylpropanoic acid]	967 nM	22 nM
COc1ccc(F)cc1CN1CCC(Oc2cccc([C@@H](CC(=O)O)C3CC3)c2)C1 (stereo partly drawn) [Example 12, (3S)-3-Cyclopropyl-3-(3-((1-(5-fluoro-2-methoxybenzyl)pyrrolidin-3-yl)oxy)phenyl)propanoic acid]	4660 nM	111 nM
O=C(O)C[C@H](c1cccc(OCC2CCN(c3cc(C(F)(F)F)ccc3C(F)(F)F)C2)c1)C1CC1 (stereo partly drawn) [Example 13, (3S)-3-(3-((1-(2,5-Bis(trifluoromethyl)phenyl)pyrrolidin-3-yl)methoxy)phenyl)-3-cyclopropylpropanoic acid]	1850 nM	129 nM
C[C@H](C(=O)O)[C@H](c1cccc(OCC2CC(NCc3cc(C(F)(F)F)ccc3C(F)(F)F)C2)c1)C1CC1 (stereo partly drawn) [Example 14, (2S,3R)-3-(3-((3-((2,5-Bis(trifluoromethyl)benzyl)amino)cyclobutyl)methoxy)phenyl)-3-cyclopropyl-2-methylpropanoic acid]	956 nM	26 nM
O=C(O)C[C@H](c1cccc(OC2CC3(C2)CN(Cc2cc(C(F)(F)F)ccc2C(F)(F)F)C3)c1)C1CC1 [Example 15, (S)-3-(3-((2-(2,5-Bis(trifluoromethyl)benzyl)-2-azaspiro[3.3]heptan-6-yl)oxy)phenyl)-3-cyclopropylpropanoic acid]	2080 nM	79 nM
C[C@H](C(=O)O)[C@H](c1cccc(OCC2CN(c3cc(C(F)(F)F)ccn3)C2)c1)C1CC1 [Example 16, (2S,3R)-3-Cyclopropyl-2-methyl-3-(3-((1-(4-(trifluoromethyl)pyridin-2-yl)azetidin-3-yl)methoxy)phenyl)propanoic acid]	631 nM	79 nM
O=C(O)C[C@H](c1cccc(OCCC2CN(Cc3cc(C(F)(F)F)ccc3C(F)(F)F)C2)c1)C1CC1 [Example 18, (S)-3-(3-(2-(1-(2,5-Bis(trifluoromethyl)benzyl)azetidin-3-yl)ethoxy)phenyl)-3-cyclopropylpropanoic acid]	3710 nM	359 nM
COc1ccc(F)cc1CN1CC(COc2cccc([C@@H](CC(=O)O)C3CC3)c2)C1 [Example 19, (S)-3-Cyclopropyl-3-(3-((1-(5-fluoro-2-methoxybenzyl)azetidin-3-yl)methoxy)-phenyl)propanoic acid]	4780 nM	497 nM
COc1ccc(F)cc1CN1CCC(COc2cccc([C@@H](CC(=O)O)C3CC3)c2)C1 (stereo partly drawn) [Example 20, (3S)-3-Cyclopropyl-3-(3-((1-(5-fluoro-2-methoxybenzyl)pyrrolidin-3-yl)methoxy)phenyl)propanoic acid]	10000 nM	266 nM
C[C@H](C(=O)O)[C@H](c1cccc(OCC2CN(c3ncccc3C(F)(F)F)C2)c1)C1CC1 [Example 21, (2S,3R)-3-Cyclopropyl-2-methyl-3-(3-((1-(3-(trifluoromethyl)pyridin-2-yl)azetidin-3-yl)methoxy)phenyl)propanoic acid]	297 nM	13 nM
CC1(C)CN(Cc2cc(C(F)(F)F)ccc2C(F)(F)F)CC1COc1cccc([C@@H](CC(=O)O)C2CC2)c1 (stereo partly drawn) [Example 22, (3S)-3-(3-((1-(2,5-Bis(trifluoromethyl)benzyl)-4,4-dimethylpyrrolidin-3-yl)methoxy)phenyl)-3-cyclopropylpropanoic acid]	2610 nM	85 nM
O=C(O)C[C@H](c1cccc(OC2CCN(Cc3cc(C(F)(F)F)ccc3C(F)(F)F)C2)c1)C1CC1 (stereo partly drawn) [Example 23, (3S)-3-(3-((1-(2,5-Bis(trifluoromethyl)benzyl)pyrrolidin-3-yl)oxy)phenyl)-3-cyclopropylpropanoic acid]	1040 nM	72 nM
O=C(O)C[C@H](c1cccc(OC2CCCN(Cc3cc(C(F)(F)F)ccc3C(F)(F)F)C2)c1)C1CC1 (stereo partly drawn) [Example 24, (3S)-3-(3-((1-(2,5-Bis(trifluoromethyl)benzyl)piperidin-3-yl)oxy)phenyl)-3-cyclopropylpropanoic acid]	524 nM	7.4 nM
C[C@H](C(=O)O)[C@H](c1cccc(OCC2CN(Cc3cc(C(F)(F)F)ccc3C(F)(F)F)C2)c1)C1CC1 [Example 25, (2S,3R)-3-(3-((1-(2,5-Bis(trifluoromethyl)benzyl)azetidin-3-yl)methoxy)phenyl)-3-cyclopropyl-2-methylpropanoic acid]	79 nM	1.4 nM
C[C@H](C(=O)O)[C@H](c1cccc(OC[C@@H]2CCN(Cc3cc(C(F)(F)F)ccc3C(F)(F)F)C2)c1)C1CC1 [Example 26]	55 nM	1.5 nM
CC(c1cc(C(F)(F)F)ccc1C(F)(F)F)N1CC(COc2cccc([C@H](C3CC3)[C@H](C)C(=O)O)c2)C1 (stereo partly drawn) [Example 27]	7.6 nM	0.3 nM
C[C@H](C(=O)O)[C@H](c1cccc(OCC2CN(Cc3cc(C(F)(F)F)ccc3C(F)(F)F)CCO2)c1)C1CC1 (stereo partly drawn) [Example 28]	613 nM	21 nM
C[C@H](C(=O)O)[C@H](c1cccc(O[C@H]2CCCN(Cc3cc(C(F)(F)F)ccc3C(F)(F)F)C2)c1)C1CC1 [Example 29]	711 nM	51 nM
C[C@H](C(=O)O)[C@H](c1cccc(OCC2CN(c3cccc(C(F)(F)F)n3)C2)c1)C1CC1 [Example 30]	279 nM	33 nM
C[C@H](C(=O)O)[C@H](c1cccc(OCC2CCN(Cc3cc(C(F)(F)F)ccc3C(F)(F)F)CC2)c1)C1CC1 [Example 31]	77 nM	1 nM
C[C@H](C(=O)O)[C@H](c1cccc(OC2CN(Cc3cc(C(F)(F)F)ccc3C(F)(F)F)C2)c1)C1CC1 [Example 32]	764 nM	59 nM
C[C@H](C(=O)O)[C@H](c1cccc(OC[C@H]2CCN(Cc3cc(C(F)(F)F)ccc3C(F)(F)F)C2)c1)C1CC1 [Example 33]	158 nM	5.3 nM
C[C@H](C(=O)O)[C@H](c1cccc(OCC2CCN(Cc3cc(C(F)(F)F)ccc3C(F)(F)F)C2)c1)C1CC1 (stereo partly drawn) [Example 34]	273 nM	10 nM
O=C(O)C[C@H](c1cccc(OC2CCN(Cc3cc(C(F)(F)F)ccc3Cl)C2)c1)C1CC1 (stereo partly drawn) [Example 42]	1120 nM	94 nM
